Data as given in patent US12180226B2, “Spirotricycle RIPK1 inhibitors and methods of uses thereof” (Merck Sharp & Dohme LLC, priority 2021, dated 2024).
Where a name gives a salt, the structure may show the parent alone.

Target: RIPK1 (recombinant GST-RIPK1 kinase domain, residues 1-327) (Homo sapiens (Human), UniProt Q13546)
Assay: RIPK1-ADP-Glo Enzymatic Assay
Assay type: biochemical
Settings: ADP-Glo; 25 nM GST-RIPK1, 300 μM ATP; assay lower limit ~25 nM; read-out: RIPK1 V0 Ec50
Summary of the method: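 ADP-Glo luminescence read after 150 min kinase reaction (300 μM ATP, 3 μM dephosphorylated MBP) using 25 nM Sf21-made GST-kinase domain (1-327), preincubated 30 min with compound. HEPES pH 7.3, 1% DMSO; ten-point 1:3 series from 100000 nM, EC50 via four-parameter sigmoidal regression.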

Chain of RIPK1 (recombinant GST-RIPK1 kinase domain, residues 1-327) (Q13546 1-327): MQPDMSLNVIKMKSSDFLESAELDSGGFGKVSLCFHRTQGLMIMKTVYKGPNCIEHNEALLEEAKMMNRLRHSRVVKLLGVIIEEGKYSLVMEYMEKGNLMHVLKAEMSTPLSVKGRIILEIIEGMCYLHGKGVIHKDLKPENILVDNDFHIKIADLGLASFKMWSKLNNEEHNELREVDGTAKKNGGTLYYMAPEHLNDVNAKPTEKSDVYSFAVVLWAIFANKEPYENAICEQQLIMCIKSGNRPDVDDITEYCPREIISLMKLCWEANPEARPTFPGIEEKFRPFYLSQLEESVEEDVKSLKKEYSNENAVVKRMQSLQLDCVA

**Q.** For `O=C1N2[C@@H](CC[C@H]2c2cc(F)cc(F)c2)OC12CCN(c1ncc(F)c(C3CC3)n1)CC2` [Example 4.65, (5′S,7a′R)-1-(4-cyclopropyl-5-fluoropyrimidin-2-yl)-5′-(3,5-difluorophenyl)tetrahydro-3′H-spiro[piperidine-4,2′-pyrrolo[2,1-b] [1,3]oxazol]-3′-one], which EC50 is on record?
**A.** Its EC50 is 164 nM.

**Q.** With `O=C(c1cccc2c1CCC2)N1CCC2(CC1)O[C@@H]1CC[C@@H](c3cc(F)cc(F)c3)N1C2=O` [Example 5.29, (5′S,7a′R)-5′-(3,5-difluoro-phenyl)-1-(2,3-dihydro-1H-indene-4-carbonyl)-tetrahydro-3′H-spiro [piperidine-4,2′-pyrrolo-[2,1-b]oxazol]-3′-one] as the compound, how does the EC50 read?
**A.** The EC50 was 62.2 nM.

**Q.** How did the EC50 turn out when `O=C1N2[C@@H](CC[C@H]2c2ccccc2)OC12CCN(c1ncc(-c3cscn3)cn1)CC2` [Example 21.13, (5′S,7a′R)-5′-phenyl-1-[5-(1,3-thiazol-4-yl)pyrimidin-2-yl]tetrahydro-3′H-spiro[piperidine-4,2′-pyrrolo[2,1-b][1,3]oxazol]-3′-one] was run?
**A.** Its EC50 is 40.3 nM.

**Q.** For `N#Cc1ccc(C(=O)N2CCC3(CC2)O[C@@H]2CC[C@@H](c4ccccc4)N2C3=O)cc1` [Example 6.151, 4-[(5′S,7a′R)-3′-oxo-5′-phenyltetrahydro-1H,3′H-spiro[piperi-dine-4,2′-pyrrolo[2,1-b][1,3]oxazole]-1-carbonyl]benzonitrile], which EC50 is on record?
**A.** The EC50 was 349 nM.

**Q.** `N#Cc1ccccc1C(=O)N1CCC2(CC1)O[C@@H]1CC[C@@H](c3ccccc3)N1C2=O` [Example 6.147, 2-[(5′S,7a′R)-3′-oxo-5′-phenyltetrahydro-1H,3′H-spiro[piperi-dine-4,2′-pyrrolo[2,1-b][1,3]oxazole]-1-carbonyl]benzonitrile] was tested. Which EC50 did it give?
**A.** Its EC50 is 328 nM.

**Q.** Which EC50 does the source give for `O=C(c1ccccc1)N1CCC2(CC1)O[C@@H]1CC[C@@H](c3cc(F)cc(F)c3)N1C2=O` [Example 1.1, (5′S,7a′R)-1-Benzoyl-5′-(3,5-difluorophenyl)tetrahydro-3′H-spiro[piperidine-4,2′-pyrrolo[2,1-b]oxazol]-3′-one] here?
**A.** The EC50 was under 25 nM.

**Q.** Which EC50 does the source give for `O=C(c1cc(C2CC2)on1)N1CCC2(CC1)O[C@@H]1CC[C@@H](c3cc(F)cc(F)c3)N1C2=O` [Example 6.25, (5′S,7a′R)-1-(5-cyclo-propyl-1,2-oxazole-3-carbonyl)-5′-(3,5-difluorophenyl)tetra-hydro-3′H-spiro[piperi-dine-4,2′-pyrrolo[2,1-b][1,3]oxazol]-3′-one] here?
**A.** Its EC50 is 82.4 nM.

**Q.** Which EC50 does the source give for `O=C1N2[C@@H](CC[C@H]2c2ccccc2)OC12CCN(c1ccc(-c3nc4ccccc4[nH]3)cn1)CC2` [Example 4.166, (5′S,7a′R)-1-[5-(1H-benzimidazol-2-yl)pyridin-2-yl]-5′-phenyltetrahydro-3′H-spiro[piperidine-4,2′-pyrrolo[2,1-b] [1,3]oxazol]-3′-one] here?
**A.** The EC50 was 56.4 nM.

**Q.** How did the EC50 turn out when `O=C1N2[C@@H](CC[C@H]2c2ccccc2)OC12CCN(c1ccnc3ccnn13)CC2` [Example 4.28, (5′S,7a′R)-5′-phenyl-1-(pyrazolo[1,5-a]pyrimidin-7-yl)tetrahydro-3′H-spiro[piperidine-4,2′-pyrrolo[2,1-b] [1,3]oxazol]-3′-one] was run?
**A.** The EC50 was under 25 nM.

**Q.** How did the EC50 turn out when `COc1cccc([C@@H]2CC[C@H]3OC4(CCN(c5cc(C#N)ncn5)CC4)C(=O)N32)c1` [Example 20.3, 6-[(5′S,7a′R)-5′-(3-methoxyphenyl)-3′-oxotetrahydro-1H,3′H-spiro[piperidine-4,2′-pyrrolo[2,1-b][1,3]oxazol]-1-yl]pyrimidine-4-carbonitrile] was run?
**A.** The EC50 was 394 nM.

**Q.** With `O=C(Nc1ccccc1)N1CCC2(CC1)O[C@@H]1CC[C@@H](c3cc(F)cc(F)c3)N1C2=O` [Example 12.1, (5′S,7a′R)-5′-(3,5-Difluorophenyl)-3′-oxo-N-phenyltetrahydro-3′H-spiro[piperidine-4,2′-pyrrolo[2,1-b]oxazole]-1-carboxamide] as the compound, how does the EC50 read?
**A.** The EC50 was 537 nM.

**Q.** `O=C(c1ccccc1)N1CCC2(CC1)O[C@@H]1CC[C@@H](c3cncc(F)c3)N1C2=O` [Example 1.4, (5′S,7a′R)-1-(benzenecarbonyl)-5′-(5-fluoropyridin-3-yl)tetrahydro-3′H-spiro[piperidine-4,2′-pyrrolo[2,1-b] [1,3]oxazol]-3′-one] was tested. Which EC50 did it give?
**A.** Its EC50 is 121 nM.

**Q.** With `Cc1ccc([C@@H]2CC[C@H]3OC4(CCN(C(=O)c5ccccc5)CC4)C(=O)N32)cc1F` [Example 17.15, (5′S,7a′R)-1-(benzenecarbonyl)-5′-(3-fluoro-4-methylphenyl)tetrahydro-3′H-spiro[piperidine-4,2′-pyrrolo[2,1-b][1,3]oxazol]-3′-one] as the compound, how does the EC50 read?
**A.** Its EC50 is under 25 nM.

**Q.** With `Cc1nc(N2CCC3(CC2)O[C@@H]2CC[C@@H](c4ccccc4)N2C3=O)ccc1C#N` [Example 4.74, 2-methyl-6-[(5′S,7a′R)-3′-oxo-5′-phenyltetrahydro-1H,3′H-spiro[piperidine-4,2′-pyrrolo[2,1-b] [1,3]oxazol]-1-yl]pyridine-3-carbonitrile] as the compound, how does the EC50 read?
**A.** The EC50 was under 25 nM.

**Q.** With `O=C1N2[C@@H](CC[C@H]2c2ccccc2)OC12CCN(c1ncnc3c(F)cnn13)CC2` [Example 4.233, (5′S,7a′R)-1-(8-fluoropyrazolo[1,5-a] [1,3,5]triazin-4-yl)-5′-phenyltetrahydro-3′H-spiro[piperidine-4,2′-pyrrolo[2,1-b] [1,3]oxazol]-3′-one] as the compound, how does the EC50 read?
**A.** The EC50 was under 25 nM.

**Q.** For `O=C(c1cc(F)c(F)cc1F)N1CCC2(CC1)O[C@@H]1CC[C@@H](c3ccccc3)N1C2=O` [Example 5.10, (5′S,7a′R)-5′-phenyl-1-(2,4,5-trifluorobenzene-1-carbonyl)tetrahydro-3′H-spiro[piperidine-4,2′-pyrrolo[2,1-b][1,3]oxazol]-3′-one], which EC50 is on record?
**A.** The EC50 was under 25 nM.

**Q.** With `O=C(c1ccc(F)cc1F)N1CCC2(CC1)O[C@@H]1CC[C@@H](c3cccc(F)c3)N1C2=O` [Example 6.114, (5′S,7a′R)-1-(2,4-difluorobenzene-1-carbonyl)-5′-(3-fluoro-phenyl)tetrahydro-3′H-spiro[piperidine-4,2′-pyrrolo[2,1-b] [1,3]oxazol]-3′-one] as the compound, how does the EC50 read?
**A.** Its EC50 is under 25 nM.

**Q.** For `N#Cc1ccc(N2CCC3(CC2)O[C@@H]2CC[C@@H](c4cccc(F)c4)N2C3=O)c(F)c1` [Example 4.53, 3-fluoro-4-[(5′S,7a′R)-5′-(3-fluorophenyl)-3′-oxotetrahydro-1H,3′H-spiro[piperidine-4,2′-pyrrolo[2,1-b] [1,3]oxazol]-1-yl]benzonitrile], which EC50 is on record?
**A.** The EC50 was under 25 nM.

**Q.** `O=C(c1ccc(C(F)F)nc1)N1CCC2(CC1)O[C@@H]1CC[C@@H](c3cc(F)cc(F)c3)N1C2=O` [Example 6.66, (5′S,7a′R)-1-[6-(difluoromethyl)pyr-idine-3-carbonyl]-5′-(3,5-difluorophenyl)-tetrahydro-3′H-spiro [piperidine-4,2′-pyrrolo[2,1-b][1,3]-oxazol]-3′-one] was tested. Which EC50 did it give?
**A.** Its EC50 is 311 nM.

**Q.** For `Cc1cc2nccc(N3CCC4(CC3)O[C@@H]3CC[C@@H](c5cc(F)cc(F)c5)N3C4=O)n2n1` [Example 4.85, (5′S,7a′R)-5′-(3,5-difluorophenyl)-1-(2-methylpyrazolo[1,5-a]pyrimidin-7-yl)tetrahydro-3′H-spiro[piperidine-4,2′-pyrrolo[2,1-b]oxazol]-3′-one, TFA salt], which EC50 is on record?
**A.** Its EC50 is 63.4 nM.

**Q.** How did the EC50 turn out when `O=C1N2[C@@H](CC[C@H]2c2ccccc2)SC12CCN(c1ccnc3c(F)cnn13)CC2` [Example 4.132, (5′S,7a′R)-1-(3-fluoropyrazolo[1,5-a]pyrimidin-7-yl)-5′-phenyltetrahydro-3′H-spiro[piperidine-4,2′-pyrrolo[2,1-b]thiazol]-3′-one] was run?
**A.** Its EC50 is under 25 nM.

**Q.** For `O=C1N2[C@@H](CC[C@H]2c2cc(F)cc(F)c2)OC12CCN(c1ccc(Cl)c3nccn13)CC2` [Example 13.16, (5′S,7a′R)-1-(8-chloroimidazo[1,2-a]pyridin-5-yl)-5′-(3,5-difluorophenyl)tetrahydro-3′H-spiro[piperidine-4,2′-pyrrolo[2,1-b]oxazol]-3′-one, TFA salt], which EC50 is on record?
**A.** Its EC50 is 32 nM.

**Q.** `O=C(c1ccn2nncc2c1)N1CCC2(CC1)O[C@@H]1CC[C@@H](c3cc(F)cc(F)c3)N1C2=O` [Example 6.22, (5′S,7a′R)-5′-(3,5-difluorophenyl)-1-([1,2,3]triazolo[1,5-a]pyridine-5-carbon-yl)tetrahydro-3′H-spiro[piperidine-4,2′-pyrrolo[2,1-b][1,3]oxazol]-3′-one] was tested. Which EC50 did it give?
**A.** Its EC50 is 30.5 nM.

**Q.** `CC(=O)c1cnc(N2CCC3(CC2)O[C@@H]2CC[C@@H](c4ccccc4)N2C3=O)cc1Cl` [Example 4.186, (5′S,7a′R)-1-(5-acetyl-4-chloropyridin-2-yl)-5′-phenyltetrahydro-3′H-spiro[piperidine-4,2′-pyrrolo[2,1-b] [1,3]oxazol]-3′-one] was tested. Which EC50 did it give?
**A.** The EC50 was under 25 nM.

**Q.** Which EC50 does the source give for `N#Cc1cc(N2CCC3(CC2)O[C@@H]2CC[C@@H](c4cc(F)cc(F)c4)N2C3=O)ncn1` [Example 4.4, 6-[(5′S,7a′R)-5′-(3,5-difluorophenyl)-3′-oxotetrahydro-1H,3′H-spiro[piperidine-4,2′-pyrrolo[2,1-b] [1,3]oxazol]-1-yl]pyrimidine-4-carbonitrile] here?
**A.** Its EC50 is under 25 nM.

**Q.** For `O=C1N2[C@@H](CC[C@H]2c2ccccc2)OC12CCN(c1cc(F)ccn1)CC2` [Example 4.14, (5′S,7a′R)-1-(4-fluoropyridin-2-yl)-5′-phenyltetrahydro-3′H-spiro[piperidine-4,2′-pyrrolo[2,1-b] [1,3]oxazol]-3′-one], which EC50 is on record?
**A.** The EC50 was under 25 nM.

**Q.** With `O=C1N2[C@@H](CC[C@H]2c2ccccc2)OC12CCN(c1ccnc(-c3ccccc3)n1)CC2` [Example 11.14, (5′S,7a′R)-5′-phenyl-1-(2-phenylpyrimidin-4-yl)tetrahydro-3′H-spiro[piperidine-4,2′-pyrrolo[2,1-b][1,3]oxazol]-3′-one] as the compound, how does the EC50 read?
**A.** The EC50 was 33.7 nM.

**Q.** For `N#Cc1cccnc1C(=O)N1CCC2(CC1)O[C@@H]1CC[C@@H](c3cc(F)cc(F)c3)N1C2=O` [Example 6.103, 2-[(5′S,7a′R)-5′-(3,5-difluorophenyl)-3 oxotetrahydro-1H,3′H-spiro[piperidine-4,2′-pyrrolo[2,1-b][1,3]-oxazole]-1-carbonyl]-pyridine-3-carbonitrile], which EC50 is on record?
**A.** The EC50 was 934 nM.
